A short description of the assay: Activity of truncated recombinant Saposin B (FIG. 1C). Particulars: cell type not given. In kind it is cell-based. The source says:
FIG. 1C: Activity of truncated recombinant Saposin B. Saposin (Sap) B 1-69 (consisting of the first 69 amino acids), Sap B 1-42 (consisting of the first 42 amino acids), Sap B 11-81 (consisting of 11-81 amino acids and thus lacking the first 10 amino acids).

No end group written: not given here.

As for “Sap B 1-42: truncated recombinant Saposin B consisting of the first 42 amino acids (GDVCQDCIQMVTDIQTAVRTNSTFVQALVEHVKEECDRLGPG; ends and bridges not checked; cysteine pairing not given here; UniProt P07602 195-236, looked up, fragment)”, the “growth inhibition by truncated recombinant Saposin B” value is listed as “dose dependent growth inhibition”.

Values taken from patent US6500431B1, “Inhibitors of angiogenesis and tumor growth” (University of Southern California, priority 1998, dated 2002).
